Reference: patent US12419308B2, “Phenylpyrazole insecticide compounds and compositions” (priority 2023, dated 2025)
Like-named read-outs stand apart in the source and are kept apart here.

Legend:
[1] = Egg concentration analysis from topically treated chickens; assay type: in vivo; conditions: in vivo
Procedure: One animal is left untreated as a negative control.
A modified and optimized QuEChERS protocol was employed to extract the compounds from eggs. The shell is manually removed, and then each egg is transferred to a clean beaker and homogenized with an electric mixer for small volumes. 5 grams of homogenized egg is put into a 50 mL Falcon tube, and 5 mL of water is added and the samples are shaken for 10 minutes. Next, 10 mL of acetonitrile is added and the samples are shaken again for 10 minutes. Then the roQ salts (4.0 g MgSO4, 1.0 g NaCl, 1.0 SCTD and 0.5 g SCDS, Phenomenex P/N KS08909) are added to each sample, and the mixture is well shaken for 10 minutes. Samples are then centrifuged at 2500 g for 5 minutes at room temperature, and the supernatant is transferred to an HPLC vial for analysis. The same HPLC-MS method is used as described above.
One egg from two chickens is analyzed: one chicken treated with Fipronil and one chicken treated with the Compound of Example 1. The eggs are both from Day 5. The results are shown in the following tables expressed as relative LC-MS peak area: […]

[2] = test system: Human Cryopreserved Hepatocytes; assay: Metabolic stability in human cryopreserved hepatocytes; assay type: in vitro ADME
Procedure: The metabolic stability of the Compounds of Examples 1 and 4 is therefore evaluated to determine whether metabolic degradation results in metabolites of concern.
Briefly, Human Cryopreserved Hepatocytes (Gibco, lot. HUE125) are added to incubation wells in a 96-well assay plate at a density of 500,000 cells/mL in William's E Medium. […] The wells are incubated at 37° C. and stop solution is added to wells at time points: 0, 30, 60, 120, 240 min. The stop solution is ice-cold solution containing 0.5 μM labetalol in acetonitrile (100 μL/well) (2:1, vol/vol). Each time point is tested in triplicate. Analysis is carried out by LC-MS.
• Instrument: QExactive • Column: Luna Omega 1.6 μm polar C18 100 Å (150×2.1 mm) • Column temperature: 40° C. • Column No: 102+pre-column installed • Injection volume: 2 μl • Flux: 0.40 mL/min • Polarity: Negative • Fluent A: water Milli Q+0.1% FA • Fluent B: ACN+0.1% FA • Acquisition method: Full MS+DDS on the IL obtained with MassMetaSite (peak others ON).

[3] = test system: adult worker honeybees, Apis mellifera L; conditions: contact
From the text: In accordance with OECD Test Guidelines No. 213 and 214, the test is considered valid if: (1) the average mortality of the control groups is ≤10% at the end of the test; and the average, control-corrected mortality of the reference item groups is ≥50% at the end of the test, at the tested dose (internal validity criteria according to POS BT200).
Young Apis mellifera L. worker honeybees are randomly collected in the morning of use or the day before from an adequately fed, healthy diseases-free and queen right beehive, not treated with chemical substances. Hives from an established apiary colony are used, and the colonies are inspected periodically, according to standard bee-keeping practices. All colonies are kept outside under field conditions and bees collect food from the environment. The last treatment against Varroa mites was done in November 2023. The bees are fed ad libitum with a water sucrose solution 50% w/v (or 500 g/L), prepared with tap water.
Adult worker honeybees are exposed to three increasing doses of the test item (see Table 2) by direct application to the thorax (droplets, see section 4.5.2). One control group is treated with propanol-water solution (ratio 80%-20%) in addition to test item groups.
Bee mortality is recorded after 4, 24 and 48 hours, and compared with the control value. If the mortality rate increases by more than 10% between 24 and 48 hours, whilst the control mortality rate remains ≤10%, the is extended to a maximum of 96 hours.
The test item is diluted in propanol-water solution (ratio 80%-20%) to prepare the contact solutions.
The bees used for the contact test are anaesthetized with carbon dioxide and individually treated by topical application of 2 μL of the test solutions onto the thorax using a micro applicator. The honeybees are then be moved to the cages and fed ad libitum with sucrose solution.
Disposable and well-ventilated cages with an internal volume not lower than 200 cm^3 are used. Each cage is equipped with a transparent lid, for a suitable observation of the bees from outside. The upper side of the cage has at least one hole for inserting the feeder: a syringe filled of 50% (w/v) aqueous sucrose solution is inserted in one hole.
The tests are conducted under the following conditions: (a) Temperature: 25.00[…]; (b) Relative humidity: 60.00[…], The honeybees are kept under constant darkness except during the assessments. Throughout the experimental phase, the temperature and relative humidity is continuously recorded with a dedicated data-logger with sensors located close to the test units.
The number of dead honeybees per cage is recorded after 4, 24 and 48 hours. If a prolonged observation period is required, further assessments are made every 24 hours, tip to a maximum duration of 96 hours. The amount of diet consumed per group is quantitatively estimated if treated diet will be left after 6 hours of exposure.
Data is summarized in tabular form, showing the number of live, dead and abnormal bees per experimental group. The mortality of each replicate is calculated as a percentage, comparing the number of dead bees to those introduced at the beginning. The mean value of the treated group is compared to the mean mortality of the respective control group(s) using the Abbott's formula modified by Schneider-Orelli (POS BT 200): […]

Dermanyssus gallinae = assay: Antiparasitic efficacy on live chickens with natural mite infestation; assay type: in vivo; conditions: by day 5 of treatment; 0.25% (w/v) spray, 7.5 mg/kg once daily for 5 days
Procedure: Two animals are treated with the compound of Example 1, and two animals are treated with Fipronil, while one animal is left untreated as a negative control. The infestation by D. gallinae is monitored by checking the density of mites in particular areas of the animal's bodies (feet, legs, and wings), comparing pre-treatment levels of infestation to post-treatment levels.
When all pests have been eliminated, a 100% pest control capability was achieved. In the case of some chemical products, when the pest was not fully eliminated, the disinfestation capacity was measured by averaging the number of infesting organisms located in three distinct areas of the treated animals, at the beginning of the treatment, and at the end of the treatment.

[4] = test system: adult worker honeybees, Apis mellifera L; assay: Acute oral toxicity test in honeybees (OECD 213); assay type: in vivo
Procedure: Untreated 50% w/v sucrose solution with 0.2% of propanol-water solution (ratio 80%-20%) is used as a negative control.
The test item is diluted with aqueous sucrose solution 50% (w/v) to prepare the oral solutions. The bees used for the oral test are anesthetized with carbon dioxide for the time necessary to immobilize them and placed inside the test cages; 2 hours before the treatment they are starved. A volume of 200 μL (20 μL/bee) of treated diet is administered to each cage with a dispenser (e.g., a syringe without tip), weighed before and after filling.
The overall exposure period is 6 hours, during which consumption is monitored: the feeder is changed at the end of the six hours or once the treated diet has been consumed (usually within 3-4 hours). In both cases, the feeder is weighed and a new feeder with untreated 50% (w/v) sucrose solution is provided ad libitum, and the mean effective dose is calculated based on the actual consumption.

For `NC(=O)c1nn(-c2c(Cl)cc(C(F)(F)F)cc2Cl)c(N)c1[S+]([O-])C(F)(F)F` (stereo not drawn) [Fipronil Amide, Fipronil amide], the “Relative LC-MS peak area of analyte in egg” value (“Relative LC-MS peak area” for short) [1] was 3.8.

With `N#Cc1nn(-c2c(Cl)cc(C(F)(F)F)cc2Cl)c(N)c1S(=O)(=O)C(F)(F)F` [Fipronil Sulfone, Fipronil sulfone] the “Relative LC-MS peak area” value ([1]; chicken, 5 days) was 5.6.

For `N#Cc1nn(-c2c(Cl)cc(C(F)(F)F)cc2Cl)c2nc(O)cc(C(F)F)c12` [Example 4, 1-(2,6-dichloro-4-(trifluoromethyl)phenyl)-4-(difluoromethyl)-6-hydroxy-1H-pyrazolo[3,4-b]pyridine-3-carbonitrile], the “Original compound still present” value ([2]; after 240 minutes, 1 μM, 500,000 cells/mL, 37° C.) was “approximately 84.2%” and the “Metabolic stability (in words)” value ([2]; human hepatocytes, up to 240 min, 1 μM) was “highly metabolically stable”.

In the case of `N#Cc1nn(-c2c(Cl)cc(C(F)(F)F)cc2Cl)c(N)c1[S+]([O-])C(F)(F)F` (stereo not drawn) [Fipronil, reference compound], the “Relative LC-MS peak area” value ([1]; chicken, 5 days) is reported as 4.8, the “% CM (4 hours)” value ([3]; group T1, dose 0.002 μg/bee) is reported as 0.0% and the “% CM (24 hours)” value ([3]; group T1, dose 0.002 μg/bee) is reported as 7.1%. The “% CM (48 hours)” value ([3]; group T1, dose 0.002 μg/bee) was 7.7%, the “% CM (4 hours)” value ([3]; group T2, dose 0.004 μg/bee) was 0.0% and the “% CM (24 hours)” value ([3]; group T2, dose 0.004 μg/bee) was 25.0%. The “% CM (48 hours)” value ([3]; group T2, dose 0.004 μg/bee) was 30.8%, the “% CM (4 hours)” value ([3]; group T3, dose 0.006 μg/bee) was 0.0% and the “% CM (24 hours)” value ([3]; group T3, dose 0.006 μg/bee) was 71.4%. For the same compound, the “% CM (48 hours)” value ([3]; group T3, dose 0.006 μg/bee) was 76.9%, the “Chickens free of mites” value (Dermanyssus gallinae) was 100% and the “% CM (4 hours)” value ([4]; group T1, dose 0.002 μg/bee) was 0.0%. For the same compound, the “% CM (24 hours)” value ([4]; group T1, dose 0.002 μg/bee) was 20.8%, the “% CM (48 hours)” value ([4]; group T1, dose 0.002 μg/bee) was 23.8% and the “% CM (4 hours)” value ([4]; group T2, dose 0.004 μg/bee) was 0.0%. The “% CM (24 hours)” value ([4]; group T2, dose 0.004 μg/bee) was 37.5%, the “% CM (48 hours)” value ([4]; group T2, dose 0.004 μg/bee) was 33.3% and the “% CM (4 hours)” value ([4]; group T3, dose 0.006 μg/bee) was 3.3%. The “% CM (24 hours)” value ([4]; group T3, dose 0.006 μg/bee) was 58.3% and the “% CM (48 hours)” value ([4]; group T3, dose 0.006 μg/bee) was 66.7%.
